Laboratory results published in patent US20090124631A1, “Combination Therapy” (priority 2007, published 2009).

The compounds below were run against T1, HDAC6 (Homo sapiens, UniProt Q9UBN7) (assay: Fluorescence-based HDAC enzyme assay, recombinant HDAC6). Details: recombinant human HDAC enzyme in vitro; read-out: IC50 (μM) HD6.
T1 construct: HDAC6 and 8 were cloned as full length N-terminally His-tagged protein; His tag (N); made in house; host or cells: Sf-9 insect cells (baculovirus)
T1 sequence (Q9UBN7 1-1215): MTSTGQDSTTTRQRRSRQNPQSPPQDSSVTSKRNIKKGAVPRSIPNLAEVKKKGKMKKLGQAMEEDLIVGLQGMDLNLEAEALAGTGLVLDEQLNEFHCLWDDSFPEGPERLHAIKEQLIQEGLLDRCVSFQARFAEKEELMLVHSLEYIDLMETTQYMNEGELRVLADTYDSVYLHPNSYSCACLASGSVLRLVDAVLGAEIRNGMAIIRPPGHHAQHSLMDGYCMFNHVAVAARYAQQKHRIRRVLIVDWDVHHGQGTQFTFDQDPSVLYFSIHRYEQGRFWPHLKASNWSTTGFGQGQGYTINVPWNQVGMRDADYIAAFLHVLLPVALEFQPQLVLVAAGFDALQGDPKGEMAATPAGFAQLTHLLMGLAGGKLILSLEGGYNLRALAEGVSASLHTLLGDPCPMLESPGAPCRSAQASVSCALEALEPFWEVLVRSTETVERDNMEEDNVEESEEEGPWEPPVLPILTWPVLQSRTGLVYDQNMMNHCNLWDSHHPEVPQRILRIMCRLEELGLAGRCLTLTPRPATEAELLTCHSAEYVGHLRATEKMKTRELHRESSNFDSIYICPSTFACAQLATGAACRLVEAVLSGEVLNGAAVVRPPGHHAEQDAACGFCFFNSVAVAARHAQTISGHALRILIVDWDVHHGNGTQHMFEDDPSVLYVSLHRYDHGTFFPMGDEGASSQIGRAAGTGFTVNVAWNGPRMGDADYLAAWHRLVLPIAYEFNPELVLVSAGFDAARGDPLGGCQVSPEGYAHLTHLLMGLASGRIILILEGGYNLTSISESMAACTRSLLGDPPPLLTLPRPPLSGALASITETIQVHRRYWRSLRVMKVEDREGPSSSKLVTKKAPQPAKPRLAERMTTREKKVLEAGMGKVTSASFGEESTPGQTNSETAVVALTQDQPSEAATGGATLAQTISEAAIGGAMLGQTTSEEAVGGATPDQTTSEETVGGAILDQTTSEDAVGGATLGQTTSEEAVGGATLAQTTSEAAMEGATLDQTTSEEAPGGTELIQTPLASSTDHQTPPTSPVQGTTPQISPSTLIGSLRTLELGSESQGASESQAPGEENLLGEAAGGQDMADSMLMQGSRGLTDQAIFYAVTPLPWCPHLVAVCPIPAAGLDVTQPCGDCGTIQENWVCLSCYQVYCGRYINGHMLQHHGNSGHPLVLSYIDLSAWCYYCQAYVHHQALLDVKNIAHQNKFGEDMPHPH
Type: biochemical
Description: cDNAs of human HDAC1-8 and 11 were generated by RT-PCR reactions using primers complementary to the 5′ and 3′ coding sequence of human HDAC gene sequences in GenBank. cDNAs corresponding to the full length human HDAC1, 2, 3 and 11 were cloned into pBlueBac4.5 vector (Invitrogen). The constructs were used to generate recombinant baculoviruses using the Bac-N-Blue™ DNA according to the manufacturer's instructions (Invitrogen). The recombinant HDAC1, 2, 3, 11 proteins produced harbor a FLAG tag at their C-termini. cDNAs encoding truncated versions of HDAC4, 5 and 7 encompassing their deacetylase domains were cloned into pDEST10 as an N-terminal hexahistidine fusion protein and recombinant baculoviruses were generated using the Bac-to-Bac™ Baculovirus expression system (Invitrogen). HDAC6 and 8 were cloned as full length N-terminally His-tagged protein. All HDAC proteins were expressed in insect Sf-9 cells (Spodoptera frugiperdai) upon infection with recombinant baculovirus. HDAC1 enzyme was purified from the Q-sepharose FF column (Amersham Pharmacia Biotech, Baie d'Urfe QC, Canada) followed by an anti-FLAG immunoaffinity column (Sigma). HDAC2, 3 and 11 were purified using Flag-antibody immunoaffinity purification. HDAC4, 5, 6, 7 and 8 were purified using either Ni-NTA resin (QIAGEN Mississauga ON, Canada) or His-Select resin (Sigma) with step washes and elution with different concentrations of imidazole in Buffer containing 25 mM Tris (or NaPO4) pH 8.0, 10% glycerol and 150 mM or 500 mM NaCl.
Recombinant HDAC enzymes were incubated with diluted compounds in assay buffer (25 mM Hepes, pH 8.0, 137 mM NaCl, 1 mM MgCl2 and 2.7 mM KCl) for 10 minutes at ambient temperatures in black 96-well plate. Boc-Lys(Ac)-AMC (for HDAC1, 2, 3, 6, and 8 enzymes), which was purchased from Bachem Biosciences Inc., (King of Prussia, Philadelphia) were added into enzyme-compound mixture and incubated at 37° C. For HDAC4, 5, 7 assays, Boc-Lys(TFA)-AMC, which was synthesized in house, was used as substrate and 0.1% BSA was added to the buffer. […] Reaction time was predetermined to ensure that reaction was linear for the incubation time. Reaction was stopped by adding a freshly prepared trypsin (1 mg/ml final concentration) with 1 μM TSA (Biomol) in assay buffer. After 30 minutes, fluorescence was measured using a fluorometer (SPECTRAMAX GeminiXS, Molecular Devices, Sunnylvale, Calif.). The 50% inhibitory concentrations (IC50) for inhibitors were determined by analyzing dose-response inhibition curves.

IC50, > 10 µM:
Nc1ccccc1NC(=O)c1ccc(N2CC[C@H](Nc3cccnc3)C2)cc1 [Compound B]
Nc1ccc(-c2ccccc2)cc1NC(=O)c1ccc(N2CC[C@H](N)C2)cc1 [Compound D]
Nc1ccc(-c2ccccc2)cc1NC(=O)c1ccc(N2CCC(N)CC2)cc1 [Compound E]
CN1CCN(c2ccc(C(=O)Nc3cc(-c4ccccn4)ccc3N)cc2)CC1 [Compound F]
CN1CCN(c2ccc(C(=O)Nc3cc(-c4ccncc4)ccc3N)cc2)CC1 [Compound G]
CC(C)N1CCN(c2ccc(C(=O)Nc3cc(-c4ccncc4)ccc3N)cc2)CC1 [Compound H]
